Entries after “also recorded” stand apart in the source; their conditions may differ.

For test [1], the system named is vagus nerve. As to the kind of experiment: Vagus nerve recording during intraluminal (duodenal) nutrient or CCK perfusion. The test is classed as in vivo, mouse. The settings on record: for time to maximum peak firing rate after the onset of the stimulus: CCK 870 nM or sucrose 300 mM intraluminal, FIG. 30C. On the procedure: (§1) Wild-type control (n=5-9), CckCRE_ChR2-tdTomato (n=6), CckCRE_Halorhodopsin-YFP (n=5), and Vglut1CRE_ChR2-YFP (n=6) mice were used for vagal recordings. Mice were anesthetized with 3 mg/g-mouse urethane 1 hour before surgery then with 0.5-1% isoflurane. A section of neck skin was removed between the jaw and clavicle. The thyroid was reflected bilaterally, and the carotid bundle was exposed using coarse dissection. The carotid nerve was separated from the vagus nerve using a curved blunt probe. Two platinum iridium wires (0.001″ diameter, PTFE coated, 10% Ir 90% Pt; Medwire by Sigmund Cohn Corp) were looped around the vagus nerve for recording. Mineral oil was used to insulate the vagus nerve from surrounding tissue. The small intestine was exposed by removing a section of skin and peritoneum. A 20 gauge gavage needle was surgically inserted through the stomach wall and into the duodenum. The gavage needle was sutured in place beyond the pyloric sphincter. Saline and stimulant tubes were connected to the gavage needle. For optogenetic experiments, a fiber optic cable (FT020, ThorLabs) was threaded through the gavage needle into the lumen of the duodenum. A perfusion exit incision was made 10 cm distal to the pyloric sphincter. During each recording, PBS was constantly perfused through the duodenum using a peristaltic pump (Cole-Parmer) at the lowest setting for a flow rate of ˜400 uL PBS per minute. Stimulation conditions were applied after recording 2 minutes of baseline activity. During whole nutrient stimulation conditions, PBS perfusion was continuous and 200 μL of ENSURE® was perfused through the second tube for 1 minute using a syringe pump. […] During CCK stimulation conditions, PBS perfusion was continuous, and 200 μL of 2.9 μM CCK octapeptide-sulfated (BaChem) was perfused through the second tube for 1 minute using a syringe pump (Fusion 200, Chemyx) for a final concentration of ˜870 nM CCK in PBS (10 μg/kg dose). […] Final stimulant concentrations were determined using the ratio of dilution and confirmed by osmolarity testing (Model 3320 Osmometer, Advanced Instruments Inc.). During 473 nm laser stimulation conditions, PBS perfusion was continuous, and the laser was pulsed for 1 minute at 40 Hz, 4 volts peak voltage, 20% duty cycle (473 nm, 80 mW laser, RGBlase).
Extracellular voltage was recorded from a pair of platinum iridium wires as described above. A differential amplifier and bandpass filter (1000× gain, 300 Hz-5 kHz bandpass filter; A-M Systems LLC) was used and the signal was processed using a data acquisition board and software (20 kHz sampling rate; Signal Express, National Instruments Corp). The raw data was analyzed using a spike sorting algorithm (MATLAB by MathWorks). Spikes were detected using simple threshold detection based on RMS noise. The firing rate was calculated using a Gaussian kernel smoothing algorithm (200-ms time scale).
Stimulation response was quantified as the maximum firing rate after stimulation (stimulant conditions) or during recording (baseline). Each trial serves as its own control by normalizing the maximum firing rate to the average baseline firing rate (defined as the first two minutes of recording, prior to stimulation onset). Mice were excluded from analysis if no sucrose response was present throughout recording. Maximum firing rate was analyzed across genotype, stimulation condition, and their interaction term by ANOVA, followed by HSD post hoc testing (iMP by SAS Institute).

A further test concerns iGluSnFR-HEK cells. Put plainly: iGluSnFR-HEK cells cultured alone, multiphoton imaging. Format: cell-based. Conditions: glutamate 100 μM. As to the method:
HEK 293/17 cells (ATCC CRL-11268) were maintained in DMEM (Gibco 11965) supplemented with 10% FBS (Corning 35-010-CV), Glutamax, and non-essential amino acids (both Gibco). Cells were transfected with 1 ug plasmid pCMV(MinDis) iGluSnFR (Addgene 41732) using 1 ul Lipofectamine 2000 in Optimem (Gibco) in 24-well plates.
The 5.2 Kb iGluSnFR (pCMV(MinDis).iGluSnFR was a gift from Loren Looger; Addgene plasmid #41732) was moved to the zeocin resistant backbone of Addgene #51694 (DRH296: FCK-Optopatch2 was a gift from Adam Cohen) as a NdeI+XhoI fragment. The resulting plasmid (pMEK8) was transfected into HEK 293/17 cells (ATCC CRL-11268) using 1 μl Lipofectamine 2000/ug DNA. Cells were maintained in DMEM (Gibco 11965) supplemented with 10% FBS (Corning 35-010-CV), Glutamax, non-essential amino acids (both Gibco) and 3 μl/ml zeocin ([…], Invitrogen).
CckCRE_tdTomato enteroendocrine cells were isolated as described above. Isolated cells were mixed with iGluSnFR-HEK cells at a ratio of 10:1, then plated on 1% Matrigel coated coverslips. Control iGluSnFR-HEK cells were plated alone. Cells were incubated for 12-18 hours before imaging. Coverslips were imaged using a multiphoton microscopy system (Bruker Ultima IV with a Chameleon Vision II tunable laser). Imaging frames were captured at 1.876 fps, using 920 nm light. Imaging series were analyzed using Fiji (ImageJ), and cell traces were plotted with Excel.

Another test concerns glutamate receptor. Put plainly: Antagonist studies: glutamate receptor antagonists on vagal nerve firing rate response to sucrose or 473 nm laser. The test is classed as in vivo, mouse. The settings on record: sucrose-300 mM; for time to peak (speed) of vagal response to sucrose: after KA/AP3 (150 μg/kg kynurenic acid + 1 mg/kg AP-3) or KA 150 μg/kg alone, sucrose alone 92.8 seconds, 1 mg/kg. As to the method: as §1, with “During 473 nm laser stimulation conditions, PBS perfusion was continuous, and the laser was pulsed for 1 minute at 40 Hz, 4 volts peak voltage, 20% duty cycle (473 nm, 80 mW laser, RGBlase).” left out
Extracellular voltage was recorded from a pair of platinum iridium wires as described above. […] The raw data was analyzed using a spike sorting algorithm (MATLAB by MathWorks). Spikes were detected using simple threshold detection based on RMS noise. The firing rate was calculated using a Gaussian kernel smoothing algorithm (200-ms time scale).
Stimulation response was quantified as the maximum firing rate after stimulation (stimulant conditions) or during recording (baseline). […] Maximum firing rate was analyzed across genotype, stimulation condition, and their interaction term by ANOVA, followed by HSD post hoc testing (iMP by SAS Institute).

Test [2] has as its system ionotropic glutamate receptor. Put plainly: Patch-clamp of nodose neurons co-cultured with CckCRE_ChR2 cells, photo-stimulation and microperfusion of glutamate blocker. Format: cell-based, mouse. Conditions: kynurenic acid 3 mM, n=4 pairs. As to the method: The small intestines of CckGFP and CckCRE_ChR2-tdTomato mice were dissected and flushed twice with cold PBS. The intestine was cut open lengthwise and cut again into ˜1 cm pieces. Tissue pieces were incubated with 3 mM EDTA at 4° C. for 15 minutes then at 37° C. for 15 minutes. New cold PBS was added and villi and crypts were mechanically detached. Villi and crypts were spun down and further digested in Collagenase and Dispase. Cells were spun down and re-suspended in L-15 media with 5% FBS and DNase to prevent cell clumping. Cells were passed through a 70 μm then 40 μm cell strainer to isolate single cells. Then cells were sorted using Fluorescence Activated Cell sorting (BD FACSAria) selecting for GFP fluorescence cells. […]
Enteroendocrine cells and nodose neurons were co-cultured as described above. […] CCK-producing enteroendocrine cells were identified by GFP expression and neurons by their morphology and lack of fluorescence. […] At the resting membrane potential, cell properties such as input resistance, and spike threshold were determined using 200 ms steps from −40 pA to 100 pA in 20 pA increment. After that, baseline neuron activity was recorded in current-clamp or voltage-clamp for 5 min before exposure to glucose (20 mM) for 30-60 sec, followed by a wash with no glucose-containing extracellular solution. […] EPSC responses were recorded for 1 second after light stimulation. […]

Test [3] relates to intestinal CCK enteroendocrine cells. Put plainly: Calcium imaging (GCaMP6s) of enteroendocrine cells in CckCRE_tdTomato intestinal organoids. Conditions: 10 mM sucrose; 40 mM KCl control; n=5. Format: cell-based, mouse. As to the method: For neurons, Phox2bCRE_GCaMP6s (n=3) nodose neurons were dissociated and plated. Nodose ganglia were dissected and digested in Liberase (Roche, 5401054001). Neurons were washed and filtered through a 70 μm cell strainer, then plated on 12 mm coverslips and placed in an incubator overnight. Cells were imaged 1-2 days later. Coverslips were placed in the recording chamber of a Zeiss Examiner Z1 and imaged with a Hamamatsu camera (Orca-flash4.0; C11440) using the Zeiss ZEN software package. For enteroendocrine cells, CckCRE_tdTomato organoids with transduced with ΔG-rabies-GCaMP6s. Organoids were imaged using multi photon microscopy 3-4 days after transduction. Imaging buffer (in mM: 140 NaCl, 5 KCl, 2 CaCl2, 2 MgCl2, 10 HEPES) was continuously perfused over the coverslips. […] Images were analyzed with Fiji ([…]), and cell traces were plotted with Matlab.

Test [4] deals with vagus nerve. As to the kind of experiment: Vagus nerve recording during intraluminal (duodenal) nutrient or CCK perfusion. Conditions: sucrose 300 mM delivered intraperitoneally, wild-type mice. The test is classed as in vivo, mouse.

Regarding “CCK8: CCK octapeptide-sulfated (BaChem) [reference compound]”, the “time to maximum peak firing rate after the onset of the stimulus” value with vagus nerve [1] (wild-type mice) is recorded as “about 180 s”. The “vagal firing rate (maximum)” value in the test with vagus nerve [1] (CCK8 870 nM (10 μg/kg) infused into the intestinal lumen, wild-type mice) is “increased the vagal firing rate to a similar maximum reached by sucrose”.

With `N[C@@H](CCC(=O)O)C(=O)O` [glutamate, reference compound], the “fluorescence response of iGluSnFR-HEK cells cultured alone” value in the test on iGluSnFR-HEK cells was “did respond; also recorded: causes an increase in fluorescence”.

With `O=C(O)c1cc(=O)c2ccccc2[nH]1` [kynurenic acid], in the test on glutamate receptor (KA/AP3 = 150 μg/kg kynurenic acid + 1 mg/kg AP-3, or KA 150 μg/kg alone, wild-type mice), the “effect on maximum (peak) normalized vagal firing rate in response to sucrose” value is given as “do not”. Besides, the “time to peak (speed) of vagal response to sucrose” value in the test with glutamate receptor is “about 180 seconds”; with glutamate receptor (listed as KA), 198 s. The “effect on rapid (first 60 seconds) vagal response to sucrose” value with glutamate receptor (kynurenic acid alone (150 μg/kg; dose range 1.5 μg/kg-1.5 mg/kg in FIG. 32), 1.5 mg/kg) is given as “suppressed; also recorded: attenuates rapid vagal response but not prolonged vagal response”. In addition, the “effect on light (470/473 nm) evoked EPSCs in connected nodose neurons” value in test [2] was “abolished”. For the same compound, the “light evoked response after the blocker is washed away” value in test [2] (wash) was “recovered”.

Consider `OC[C@H]1O[C@@](CO)(O[C@H]2O[C@H](CO)[C@@H](O)[C@H](O)[C@H]2O)[C@@H](O)[C@@H]1O` [sucrose], for which, in the test with vagus nerve [1] (wild-type mice), the “time to maximum peak firing rate after the onset of the stimulus” value is “about 60 s”. Moreover, the vagal response entry in the test on vagus nerve [1] (luminal sucrose 300 mM, CckCRE_Halo-YFP mice, no laser) was “elicited a vagal response”. Besides, the vagal firing rate result is given as “significantly increased; also recorded: stimulate” with vagus nerve [1] (sucrose 100 mM-300 mM (300 mM in figures) perfused intraluminally, wild-type mice, vs baseline) and “not observed; also recorded: did not increase vagal firing rate” in the test on vagus nerve [4]. The “time to peak of vagal response” value in the test on vagus nerve [1] (sucrose-300 mM without antagonist, wild-type mice, average, FIG. 25D) worked out at 92.8 s. Also, the vagal activity entry with vagus nerve [1] (sucrose-300 mM, Vglut1CRE_ChR2 mice) is listed as “stimulate vagal activity”. Moreover, in test [3], the “magnitude of the sugar response as percent fluorescence of the KCl response” value stood at 72.4±10.6%.

Source of the values: US20200147149A1, “COMPOSITIONS AND METHODS FOR THE MODULATION OF GUT SENSORY CELLS” (Duke University, priority 2017, published 2020).
